Assay results as given in PubChem BioAssay (NCI).
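Step 1: Grow cells in 96-well plates. Step 2: Expose to compound for 48 hours at 5 concentrations. Step 3: Interpolate endpoints linearly; if unreached, use highest concentration. TGI denotes the concentration required for complete inhibition of growth.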

Legend:
Assay in all cases: NCI tumour cell line growth inhibition, 48 h
SW-620 colon = test system: SW-620 colon
DU-145 prostate = test system: DU-145 prostate
MOLT-4 leukemia = test system: MOLT-4 leukemia
KM12 colon = test system: KM12 colon
HOP-92 NSCLC = test system: HOP-92 NSCLC
SF-268 CNS = test system: SF-268 CNS
RPMI-8226 leukemia = test system: RPMI-8226 leukemia
MDA-MB-231 breast = test system: MDA-MB-231 breast
UACC-257 melanoma = test system: UACC-257 melanoma
HT29 colon = test system: HT29 colon
CCRF-CEM leukemia = test system: CCRF-CEM leukemia
A549 NSCLC = test system: A549 NSCLC
U251 CNS = test system: U251 CNS
NCI-H522 lung = test system: NCI-H522 lung
SK-OV-3 ovarian = test system: SK-OV-3 ovarian
OVCAR-5 ovarian = test system: OVCAR-5 ovarian
A498 renal = test system: A498 renal
LOX IMVI melanoma = test system: LOX IMVI melanoma
SK-MEL-5 melanoma = test system: SK-MEL-5 melanoma
SNB-19 CNS = test system: SNB-19 CNS
UO-31 renal = test system: UO-31 renal
M14 melanoma = test system: M14 melanoma
NCI-H23 lung = test system: NCI-H23 lung
K-562 leukemia = test system: K-562 leukemia
SK-MEL-2 melanoma = test system: SK-MEL-2 melanoma
SN12C renal = test system: SN12C renal
MDA-MB-435 = test system: MDA-MB-435
NCI/ADR-RES ovarian = test system: NCI/ADR-RES ovarian
PC-3 prostate = test system: PC-3 prostate
RXF 393 renal = test system: RXF 393 renal
UACC-62 melanoma = test system: UACC-62 melanoma
OVCAR-4 ovarian = test system: OVCAR-4 ovarian
TK-10 renal = test system: TK-10 renal
EKVX NSCLC = test system: EKVX NSCLC
SK-MEL-28 melanoma = test system: SK-MEL-28 melanoma
BT-549 breast = test system: BT-549 breast
COLO 205 colon = test system: COLO 205 colon
MALME-3M melanoma = test system: MALME-3M melanoma
IGROV1 ovarian = test system: IGROV1 ovarian
T-47D breast = test system: T-47D breast
HS 578T breast = test system: HS 578T breast
HCT-116 colon = test system: HCT-116 colon
SF-295 CNS = test system: SF-295 CNS
HOP-62 NSCLC = test system: HOP-62 NSCLC
786-0 renal = test system: 786-0 renal
CAKI-1 renal = test system: CAKI-1 renal
HCT-15 colon = test system: HCT-15 colon
OVCAR-8 ovarian = test system: OVCAR-8 ovarian
MDA-N = test system: MDA-N
SNB-75 CNS = test system: SNB-75 CNS
SR leukemia = test system: SR leukemia
ACHN renal = test system: ACHN renal
NCI-H226 lung = test system: NCI-H226 lung
OVCAR-3 ovarian = test system: OVCAR-3 ovarian
NCI-H460 lung = test system: NCI-H460 lung
HL-60(TB) leukemia = test system: HL-60(TB) leukemia
SF-539 CNS = test system: SF-539 CNS

Compound `O=[N+]([O-])c1cccc(N=Nc2c(O)ccc3ccccc23)c1` has a TGI (SW-620 colon) greater than 100 µM, a TGI (DU-145 prostate) greater than 100 µM and a TGI (MOLT-4 leukemia) greater than 100 µM. For the same compound, the TGI (KM12 colon) was greater than 100 µM, the TGI (HOP-92 NSCLC) was greater than 100 µM and the TGI (SF-268 CNS) was greater than 100 µM. It also gave a TGI (RPMI-8226 leukemia) greater than 100 µM, a TGI (MDA-MB-231 breast) greater than 100 µM and a TGI (UACC-257 melanoma) greater than 100 µM. It also gave a TGI (HT29 colon) greater than 100 µM, a TGI (CCRF-CEM leukemia) of 56.7 µM and a TGI (A549 NSCLC) greater than 100 µM. For the same compound, the TGI (U251 CNS) was greater than 100 µM, the TGI (NCI-H522 lung) was greater than 100 µM and the TGI (SK-OV-3 ovarian) was greater than 100 µM. It also gave a TGI (OVCAR-5 ovarian) greater than 100 µM, a TGI (A498 renal) greater than 100 µM and a TGI (LOX IMVI melanoma) greater than 100 µM. It also gave a TGI (SK-MEL-5 melanoma) greater than 100 µM, a TGI (SNB-19 CNS) of 75.5 µM and a TGI (UO-31 renal) greater than 100 µM. The TGI (M14 melanoma) was greater than 100 µM, the TGI (NCI-H23 lung) was greater than 100 µM and the TGI (K-562 leukemia) was greater than 100 µM. The TGI (SK-MEL-2 melanoma) was greater than 100 µM, the TGI (SN12C renal) was greater than 100 µM and the TGI (MDA-MB-435) was greater than 100 µM. The TGI (NCI/ADR-RES ovarian) was greater than 100 µM, the TGI (PC-3 prostate) was greater than 100 µM and the TGI (RXF 393 renal) was greater than 100 µM. For the same compound, the TGI (UACC-62 melanoma) was greater than 100 µM, the TGI (OVCAR-4 ovarian) was greater than 100 µM and the TGI (TK-10 renal) was greater than 100 µM. The TGI (EKVX NSCLC) was greater than 100 µM, the TGI (SK-MEL-28 melanoma) was greater than 100 µM and the TGI (BT-549 breast) was greater than 100 µM. It also gave a TGI (COLO 205 colon) greater than 100 µM, a TGI (MALME-3M melanoma) greater than 100 µM and a TGI (IGROV1 ovarian) greater than 100 µM. It also gave a TGI (T-47D breast) greater than 100 µM, a TGI (HS 578T breast) greater than 100 µM and a TGI (HCT-116 colon) greater than 100 µM. It also gave a TGI (SF-295 CNS) greater than 100 µM, a TGI (HOP-62 NSCLC) greater than 100 µM and a TGI (786-0 renal) greater than 100 µM. The TGI (CAKI-1 renal) was greater than 100 µM, the TGI (HCT-15 colon) was greater than 100 µM and the TGI (OVCAR-8 ovarian) was greater than 100 µM. It also gave a TGI (MDA-N) greater than 100 µM and a TGI (SNB-75 CNS) greater than 100 µM.
`N/C(=N\S(=O)(=O)c1cc(Cl)c(Oc2ccc([N+](=O)[O-])cc2Cl)c(Cl)c1)Nc1ccc(Cl)cc1` gave a TGI (SW-620 colon) of 45.9 µM, a TGI (DU-145 prostate) of 35.8 µM and a TGI (MOLT-4 leukemia) of 34.2 µM. For the same compound, the TGI (KM12 colon) was 36.6 µM, the TGI (HOP-92 NSCLC) was 32.3 µM and the TGI (SF-268 CNS) was greater than 100 µM. It also gave a TGI (SR leukemia) of 43.3 µM, a TGI (MDA-MB-231 breast) of 32.9 µM and a TGI (UACC-257 melanoma) of 32.8 µM. The TGI (HT29 colon) was 54.4 µM, the TGI (CCRF-CEM leukemia) was 52.1 µM and the TGI (A549 NSCLC) was 35.9 µM. The TGI (U251 CNS) was 29.6 µM, the TGI (NCI-H522 lung) was greater than 100 µM and the TGI (SK-OV-3 ovarian) was 39.8 µM. The TGI (OVCAR-5 ovarian) was 53.6 µM, the TGI (A498 renal) was 29.4 µM and the TGI (LOX IMVI melanoma) was 31.6 µM. The TGI (SK-MEL-5 melanoma) was 31.3 µM, the TGI (ACHN renal) was 30.5 µM and the TGI (SNB-19 CNS) was 33.6 µM. It also gave a TGI (UO-31 renal) of 34.1 µM, a TGI (M14 melanoma) of 36.4 µM and a TGI (NCI-H23 lung) of 32.1 µM. The TGI (K-562 leukemia) was 43.1 µM, the TGI (NCI-H226 lung) was 33.2 µM and the TGI (SK-MEL-2 melanoma) was 36.2 µM. The TGI (SN12C renal) was 33.3 µM, the TGI (MDA-MB-435) was 33.6 µM and the TGI (OVCAR-3 ovarian) was 37.6 µM. It also gave a TGI (NCI-H460 lung) of 40.1 µM, a TGI (NCI/ADR-RES ovarian) of 35.3 µM and a TGI (PC-3 prostate) of 30.5 µM. The TGI (HL-60(TB) leukemia) was 39.6 µM, the TGI (RXF 393 renal) was 31.8 µM and the TGI (UACC-62 melanoma) was 25.6 µM. The TGI (OVCAR-4 ovarian) was 30.4 µM, the TGI (TK-10 renal) was 35.4 µM and the TGI (EKVX NSCLC) was 36.6 µM. It also gave a TGI (SK-MEL-28 melanoma) of 33 µM, a TGI (BT-549 breast) of 32.3 µM and a TGI (COLO 205 colon) of 30.5 µM. The TGI (MALME-3M melanoma) was greater than 100 µM, the TGI (IGROV1 ovarian) was 31.4 µM and the TGI (T-47D breast) was 34.2 µM. The TGI (SF-539 CNS) was 34.4 µM, the TGI (HS 578T breast) was greater than 100 µM and the TGI (HCT-116 colon) was 34.3 µM. It also gave a TGI (SF-295 CNS) of 39.5 µM, a TGI (786-0 renal) of 35.1 µM and a TGI (CAKI-1 renal) of 33.1 µM. For the same compound, the TGI (HCT-15 colon) was 33.3 µM, the TGI (OVCAR-8 ovarian) was 31.9 µM and the TGI (MDA-N) was 34.8 µM. It also gave a TGI (SNB-75 CNS) of 35.2 µM.
